Patent US11608334B2, “Pyrrolo-aromatic heterocyclic compound, preparation method therefor, and medical use thereof” (The National Institutes of Pharmaceutical R&D Co., Ltd., priority 2017, dated 2023)

Legend:
[1] = molecular target: T1, BTK (Homo sapiens, UniProt Q06187); experiment: Determination of BTK inhibitory activity (ADP-Glo kinase assay); type: biochemical; conditions: BTK (Promega), Poly E4Y substrate, 25° C., 60 minutes
T1 construct: purchased Promega
Procedure: To a 384 reaction plate (6008280, PerkinElmer), 2 μL/well of BTK solution (purchased from Promega) was added. The test compound (10 mM stock solution) was diluted 100-fold to 100 μM with 100% DMSO. In a 384 dilution plate (3657, coming), a 1:3 dilution was made, and the gradient concentrations of the test compounds were 100, 33.3, 11.1, 3.7, 1.24, 0.41, 0.14, 0.046, 0.015, 0.0051, 0 μM. 2 μL of the test compound was transferred to a 384-dilution plate containing 38 μL of 1× Kinase Reaction Buffer, homogenized and centrifuged at 1000 rpm. 1 μL of the test compound was transferred to the 384 reaction plate, centrifuged at 1000 rpm, and incubated at 25° C. for 15 minutes. 2 μL of substrate mixture (ATP: 10 mM, 4 μL; Poly E4Y 1:1 mg/mL, 20 μL; Kinase Reaction Buffer: 776 μL) was transferred to a 384 reaction plate, centrifuged at 1000 rpm and incubated at 25° C. for 60 minutes. The final concentration of the test compound in the reaction system was the gradients of 1000, 333.3, 111.1, 37.03, 12.35, 4.14, 1.37, 0.46, 0.15, 0.051, 0 nM. The final concentration of DMSO was 1%. 5 μL of ADP-Glo solution (purchased from Promega) was transferred to a 384 reaction plate, centrifuged at 1000 rpm and incubated at 25° C. for 40 minutes. 10 μL of Detection solution was transferred to a 384 reaction plate, centrifuged at 1000 rpm and incubated for 40 minutes at 25° C. The RLU (Relative luminescence unit) signal was read using an Envision multi-function reader (Perkin Elmer), and the signal intensity was used to characterize the activity of BTK kinase. The IC50 values was calculated and analyzed by Microsoft Excel software.

[2] = tested on: Type 2 Collagen Induced DBA/1J Mouse Arthritis Model (CIA); experiment: Type 2 collagen induced DBA/1J mouse arthritis model (CIA), arthritis index score; type: in vivo; conditions: CIA DBA/1 mice, 30 mg/kg orally once a day, n = 9
Procedure: The CIA model is an animal model widely used to study the drug activity on human rheumatoid arthritis.
Animals: DBA/1 mice, sex: male, number: 30, weight: 14-16 g, age of weeks: 6-7 weeks old, purchased from Beijing Weitong Lihua Experimental Animal Technology Co., Ltd., SPF, animal production license number: SCXK (Beijing) 2012-0001, the issue unit: Beijing Science and Technology Commission.
Group: model control group, administration (30 mg/Kg) group (compound of example 33).
An appropriate amount of Bovine Type II Collage (purchased from Chondrex. Inc.) was dissolved in 0.05 M acetic acid (4 mg collagen/mL) and stored in a refrigerator at 4° C. overnight. Then it was fully emulsified with an equal amount of complete Freund's adjuvant in an ice bath environment. Each DBA/1J mouse was injected subcutaneously at 1.5 cm from the base of the tail with 0.1 mL emulsion (200 μg of collagen). Clinical symptom observation and arthritis score were started 4 weeks after modeling. The scores of all symptomatic animals were ranked and randomly grouped into two groups, which were model control group (the same amount of 0.5% CMC was administered orally) and administration group (30 mg/kg of the compound of Example 33 was administered orally) respectively. The administration was continued for 21 days withonce a day. Arthritis scores and body weight changes were measured every 3 days after administration.
Arthritis Index Score: The arthritis index score is based on Wood's arthritis score as follows: • 0 points: normal • 1 points: redness involving 1 knuckle • 2 points: redness involving more than 2 knuckles or mild redness involving entire foot • 3 points: the feet are red and swollen • 4 points: the feet are severely red and swollen, and the joints are stiff and inelastic.
The damage of each of the 4 paws was graded as 0-4 points and the total score of the limbs was calculated. The scores at different times were compared (arthritis index).

T1 sequence (Q06187 whole entry): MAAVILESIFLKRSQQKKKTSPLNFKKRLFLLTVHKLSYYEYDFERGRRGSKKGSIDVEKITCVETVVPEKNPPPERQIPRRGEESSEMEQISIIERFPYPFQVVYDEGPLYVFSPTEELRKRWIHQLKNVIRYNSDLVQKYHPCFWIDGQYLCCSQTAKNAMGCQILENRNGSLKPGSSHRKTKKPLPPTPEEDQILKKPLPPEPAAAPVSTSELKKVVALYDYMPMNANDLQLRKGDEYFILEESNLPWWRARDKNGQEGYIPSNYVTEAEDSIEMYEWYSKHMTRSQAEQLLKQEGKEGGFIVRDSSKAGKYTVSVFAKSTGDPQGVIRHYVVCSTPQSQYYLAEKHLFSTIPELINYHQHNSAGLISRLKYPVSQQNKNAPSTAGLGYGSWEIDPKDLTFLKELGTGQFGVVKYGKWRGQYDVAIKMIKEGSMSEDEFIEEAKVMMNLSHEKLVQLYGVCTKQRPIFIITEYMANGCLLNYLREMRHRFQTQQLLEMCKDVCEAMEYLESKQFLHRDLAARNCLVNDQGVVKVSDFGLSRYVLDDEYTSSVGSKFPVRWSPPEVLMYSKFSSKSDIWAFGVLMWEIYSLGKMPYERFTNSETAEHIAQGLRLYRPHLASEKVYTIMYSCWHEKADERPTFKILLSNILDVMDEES

| IC50 [1] [nM] | Structure (SMILES) | further results |
| --- | --- | --- |
| < 100 | C=CC(=O)Nc1cccc(Oc2c(Cl)cnc3[nH]c(-c4ccc(N5CCN(C)CC5)cc4)cc23)c1 [Example 1, N-(3-((5-chloro-2-(4-(4-methylpiperazin-1yl)phenyl)-1H-pyrrolo[2,3-b]pyridin-4-yl)oxy)phenyl)acrylamide] | – |
| < 100 | C=CC(=O)Nc1cccc(Oc2c(F)cnc3[nH]c(-c4ccc(N5CCN(C)CC5)cc4)cc23)c1 [Example 2, N-(3-((5-fluoro-2-(4-(4-methylpiperazin-1yl)phenyl)-1H-pyrrolo[2,3-b]pyridin-4-yl)oxy)phenyl) acrylamide] | – |
| < 100 | C=CC(=O)Nc1cccc(Nc2ncnc3[nH]c(-c4ccc(N5CCN(C)CC5)cc4)cc23)c1 [Example 5, N-(3-((6-(4-(4-methylpiperazin-1-yl)phenyl)-7H-pyrrolo[2,3-d]pyrimidin-4-yl)amino)phenyl)acrylamide] | – |
| < 100 | CC#CC(=O)Nc1cccc(Oc2ncnc3[nH]c(-c4ccc(N5CCN(C)CC5)cc4)cc23)c1 [Example 6, N-(3-((6-(4-(4-methylpiperazin-1-yl)phenyl)-7H-pyrrolo[2,3-d]pyrimidin-4-yl)oxy)phenyl) but-2-ynylamide] | – |
| < 100 | C=CC(=O)Nc1cccc(Oc2ncnc3[nH]c(-c4ccc(N5CCN(C)CC5)cc4)cc23)c1 [Example 12, N-(3-((6-(4-(4-methylpiperazin-1-yl)phenyl)-7H-pyrrolo[2,3-d]pyrimidin-4-yl)oxy)phenyl) acrylamide] | – |
| < 100 | C=CC(=O)N(C)c1cccc(Oc2ncnc3[nH]c(-c4ccc(N5CCOCC5)cc4)cc23)c1 [Example 16, N-methyl-N-(3-((6-(4-morpholinylphenyl)-7H-pyrrolo[2,3-d]pyrimidin-4-yl)oxy)phenyl)acrylamide] | – |
| < 100 | C=CC(=O)Nc1cc(Oc2ncnc3[nH]c(-c4ccc(N5CCN(C)CC5)cc4)cc23)ccc1F [Example 18, N-(2-fluoro-5-((6-(4-(4-methylpiperazin-1-yl)phenyl)-7H-pyrrolo[2,3-d]pyrimidin-4-yl)oxy)phenyl)acrylamide] | – |
| < 100 | C=CC(=O)Nc1cc(Oc2ncnc3[nH]c(-c4ccc(N5CCOCC5)cc4)cc23)ccc1F [Example 19, N-(2-Fluoro-5-((6-(4-morpholinylphenyl)-7H-pyrrolo[2,3-d]pyrimidin-4-yl)oxy)phenyl)acrylamide] | – |
| < 100 | C=CC(=O)Nc1cccc(Oc2ncnc3[nH]c(-c4ccc(N5CCN(C)CC5)c(F)c4)cc23)c1 [Example 25, N-(3-((6-(3-fluoro-4-(4-methylpiperazin-1-yl)phenyl)-7H-pyrrolo[2,3-d]pyrimidin-4-yl)oxy)phenyl)acrylamide] | – |
| < 100 | C=CC(=O)Nc1cccc(Nc2ncnc3[nH]c(-c4ccc(N5CCOCC5)cc4)cc23)c1 [Example 32, N-(3-((6-(4-morpholinylphenyl)-7H-pyrrolo[2,3-d]pyrimidin-4-yl)amino)phenyl) acrylamide] | – |
| – | C=CC(=O)Nc1cccc(Oc2ncnc3[nH]c(-c4ccc(N5CCOCC5)cc4)cc23)c1 [Example 33, N-(3-((6-(4-morpholinylphenyl)-7H-pyrrolo[2,3-d]pyrimidin-4-yl)oxy)phenyl)acrylamide] | Arthritis score ([2]; 3 day after administration): 5.00 ± 3.16; Arthritis score ([2]; 7 day after administration): 5.78 ± 2.91; Arthritis score ([2]; 10 day after administration): 6.13 ± 3.23; Arthritis score ([2]; 14 day after administration, *P < 0.05 vs model control): 5.13 ± 3.60*; Arthritis score ([2]; 17 day after administration, *P < 0.05 vs model control): 4.63 ± 3.11*; Arthritis score ([2]; 21 day after administration, **P < 0.01 vs model control): 3.63 ± 1.92**; Arthritis score ([2]; Before administration): 4.11 ± 3.26 |
| < 100 | C=CC(=O)Nc1cccc(Oc2ncnc3[nH]c(-c4ccc(CN5CCS(=O)(=O)CC5)cc4)cc23)c1 [Example 44, N-(3-((6-(4-((1,1-dioxothiomorpholinyl)methyl)phenyl)-7H-pyrrolo[2,3-d]pyrimidin-4-yl)oxy)phenyl)acrylamide] | – |
| < 100 | C=CC(=O)Nc1cccc(Oc2ncnc3[nH]c(-c4ccc(CN5CCOCC5)cc4)cc23)c1 [Example 46, N-(3-((6-(4-(morpholinomethyl)phenyl)-7H-pyrrolo[2,3-d]pyrimidin-4-yl)oxy)phenyl)acrylamide] | – |
| < 100 | C=CC(=O)Nc1cccc(Oc2ncnc3[nH]c(-c4ccc(CN5CCC(F)(F)CC5)cc4)cc23)c1 [Example 47, N-(3-((6-(4-((4,4-Difluoropiperidin-1-yl)methyl)phenyl)-7H-pyrrolo[2,3-d]pyrimidin-4-yl)oxy)phenyl)acrylamide] | – |
| < 100 | C=CC(=O)Nc1cccc(Oc2ncnc3[nH]c(-c4ccc(NC5CCN(C)CC5)cc4)cc23)c1 [Example 53, N-(3-((6-(4-((1-methylpiperidin-4-yl)amino)phenyl)-7H-pyrrolo[2,3-d]pyrimidin-4-yl)oxy)phenyl)acrylamide] | – |
| < 100 | CC#CC(=O)Nc1cccc(Oc2ncnc3[nH]c(-c4ccc(CN5CCC(F)(F)CC5)cc4)cc23)c1 [Example 63, N-(3-((6-(4-((4,4-difluoropiperidin-1-yl)methyl)phenyl)-7H-pyrrolo[2,3-d]pyrimidin-4-yl)oxy)phenyl)but-2-ynylamide] | – |
| < 100 | CC#CC(=O)Nc1cccc(Oc2ncnc3[nH]c(-c4ccc(CN5CCCCC5)cc4)cc23)c1 [Example 64] | – |
